31 compounds from US9067871B2, “Aminotetraline derivatives, pharmaceutical compositions containing them, and their use in therapy” (ABBVIE DEUTSCHLAND GMBH & CO KG, priority 2009, dated 2015) can be followed below.

pKi: −log10 of the molar value. Where a name gives a salt, the structure may show the parent alone.

For the first experiment, the target named is human GlyT1c transporter (Homo sapiens (Human), UniProt P48067). The experiment in a line: Radioligand binding assay using recombinant CHO cell membranes expressing human GlyT1. To be noted: human GlyT1c-expressing CHO cell membranes; read-out: radioligand binding Kiapp. The text has this: 2. Radioligand binding assays using recombinant CHO cell membranes expressing human GlyT1: […]
Chain of human GlyT1c transporter (P48067 whole entry): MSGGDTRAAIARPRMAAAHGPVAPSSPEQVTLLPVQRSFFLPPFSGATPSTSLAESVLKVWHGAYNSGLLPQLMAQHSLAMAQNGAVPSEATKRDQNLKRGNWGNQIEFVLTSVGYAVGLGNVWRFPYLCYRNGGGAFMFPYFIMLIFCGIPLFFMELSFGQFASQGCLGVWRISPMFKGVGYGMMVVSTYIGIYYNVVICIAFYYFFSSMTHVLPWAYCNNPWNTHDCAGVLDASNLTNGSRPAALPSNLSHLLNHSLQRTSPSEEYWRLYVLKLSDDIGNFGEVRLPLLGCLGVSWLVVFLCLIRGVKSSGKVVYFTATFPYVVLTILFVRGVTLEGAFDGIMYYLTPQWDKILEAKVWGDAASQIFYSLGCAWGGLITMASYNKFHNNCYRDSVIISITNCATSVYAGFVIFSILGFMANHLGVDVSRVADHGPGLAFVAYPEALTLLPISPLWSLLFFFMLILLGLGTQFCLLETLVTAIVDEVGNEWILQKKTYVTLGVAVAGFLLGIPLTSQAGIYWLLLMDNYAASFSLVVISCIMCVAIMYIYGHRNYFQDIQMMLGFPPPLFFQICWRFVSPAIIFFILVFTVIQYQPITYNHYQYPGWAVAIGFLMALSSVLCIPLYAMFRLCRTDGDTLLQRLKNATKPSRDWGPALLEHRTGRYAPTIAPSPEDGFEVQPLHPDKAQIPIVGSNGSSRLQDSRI
For the compound `NC1CCc2ccc(OCCNS(=O)(=O)C3CC3)cc2C1Cc1ccccc1` (stereo not shown) [Example 102, Cyclopropanesulfonic acid [2-(7-amino-8-benzyl-5,6,7,8-tetrahydro-naphthalen-2-yloxy)ethyl]-amide hydrochloride], the pKi is no less than 6.00. On the same count and under the same terms, the same measure for `NC1CCc2ccc(OCCNS(=O)(=O)CC3CC3)cc2C1Cc1ccc(Cl)c(Cl)c1` (stereo not shown) [Example 95, N-{2-[7-Amino-8-(3,4-dichloro-benzyl)-5,6,7,8-tetrahydro-naphthalen-2-yloxy]-ethyl}-C-cyclopropyl-methanesulfonamide hydrochloride]: no less than 8.00; for `O=S(=O)(CC1CC1)NCc1ccc2c(c1)C(Cc1ccccc1)C(N1CCOCC1)CC2` (stereo not shown) [Example 259, N-{[8-Benzyl-7-(morpholin-4-yl)-5,6,7,8-tetrahydronaphthalen-2-yl]methyl}-1-cyclopropylmethanesulfonamide]: no less than 6.00. Same read-out and setting: to `CN(CCOc1ccc2c(c1)C(Cc1cccc(Cl)c1)C(N)CC2)S(=O)(=O)CC1CC1` (stereo not shown) [Example 291, N-{2-[7-Amino-8-(3-chloro-benzyl)-5,6,7,8-tetrahydro-naphthalen-2-yloxy]-ethyl}-C-cyclopropyl-N-methyl-methanesulfonamide] belongs no less than 8.00; to `CCCS(=O)(=O)N1CC(c2ccc3c(c2)C(Cc2ccccc2)C(N)CC3)C1` (stereo not shown) [Example 284, 1-Benzyl-7-[1-(propane-1-sulfonyl)-azetidin-3-yl]-1,2,3,4-tetrahydro-naphthalen-2-ylamine hydrochloride], no less than 6.00; to `Cn1ccc(S(=O)(=O)NCCOc2ccc3c(c2)C(Cc2cccc(F)c2)C(N2CCCC2)CC3)c1` (stereo not shown) [Example 149, N-(2-{[8-(3-Fluorobenzyl)-7-(pyrrolidin-1-yl)-5,6,7,8-tetrahydronaphthalen-2-yl]oxy}ethyl)-1-methyl-1H-pyrrole-3-sulfonamide hydrochloride], no less than 7.00. Still for that read-out and setting: to `Cn1cnc(S(=O)(=O)NCc2ccc3c(c2)C(Cc2cccc(F)c2)C(N2CCC2)CC3)c1` (stereo not shown) [Example 256, N-{[7-(Azetidin-1-yl)-8-(3-fluorobenzyl)-5,6,7,8-tetrahydronaphthalen-2-yl]methyl}-1-methyl-1H-imidazole-4-sulfonamide hydrochloride] belongs no less than 7.00; to `NC1CCc2ccc(CCCNS(=O)(=O)CC3CC3)cc2C1Cc1cccc(Cl)c1` (stereo not shown) [Example 296, N-{3-[7-Amino-8-(3-chloro-benzyl)-5,6,7,8-tetrahydro-naphthalen-2-yl]-propyl}-C-cyclopropyl-methanesulfonamide hydrochloride], no less than 7.00.

With `CCOC(=O)NC1CCc2ccc(OCCNS(=O)(=O)c3ccn(C)c3)cc2C1Cc1cc(F)cc(F)c1` (stereo not shown) [Example 236, Ethyl[1-(3,5-difluorobenzyl)-7-(2-{[(1-methyl-1H-pyrrol-3-yl)sulfonyl]amino}ethoxy)-1,2,3,4-tetrahydronaphthalen-2-yl]carbamate], the pKi was no less than 6.00.

For `CN(CCOc1ccc2c(c1)C(Cc1ccccc1)C(N)CC2)S(=O)(=O)c1cn(C)cn1` (stereo not shown) [Example 98, 1-Methyl-1H-imidazole-4-sulfonic acid [2-(7-amino-8-benzyl-5,6,7,8-tetrahydronaphthalen-2-yloxy)-ethyl]-methyl-amide hydrochloride], the pKi is no less than 6.00.

`Cn1cc(S(=O)(=O)NCCOc2ccc3c(c2)C(Cc2cccc(Cl)c2)C(N2CCC2)CC3)cn1` (stereo not shown) [Example 322, 1-Methyl-1H-pyrazole-4-sulfonic acid {2-[7-azetidin-1-yl-8-(3-chloro-benzyl)-5,6,7,8-tetrahydro-naphthalen-2-yloxy]-ethyl}-amide hydrochloride]: the pKi was no less than 8.00.

Take `CCC(=O)NCCOc1ccc2c(c1)C(Cc1ccccc1)C(N)CC2` (stereo not shown) [Example 103, N-[2-(7-Amino-8-benzyl-5,6,7,8-tetrahydro-naphthalen-2-yloxy)-ethyl]-propionamide hydrochloride]: the pKi was no less than 5.00. The same measure, in the same setting: the same measure for `CCCS(=O)(=O)NCCCc1ccc2c(c1)C(Cc1ccc(F)cc1)C(NC(C)=O)CC2` (stereo not shown) [Example 215, N-[1-(4-Fluorobenzyl)-7-{3-[(propylsulfonyl)amino]propyl}-1,2,3,4-tetrahydronaphthalen-2-yl]acetamide]: no less than 5.00; for `CCCS(=O)(=O)NCCCc1ccc2c(c1)C(Cc1ccccc1)C(NCC)CC2` (stereo not shown) [Example 223, N-{3-[8-Benzyl-7-(ethylamino)-5,6,7,8-tetrahydronaphthalen-2-yl]propyl}propane-1-sulfonamide hydrochloride]: no less than 7.00; for `CCCS(=O)(=O)NCCOc1ccc2c(c1)C(CC1CCCCC1)C(NC)CC2` (stereo not shown) [Example 314, Propane-1-sulfonic acid [2-(8-cyclohexylmethyl-7-methylamino-5,6,7,8-tetrahydronaphthalen-2-yloxy)-ethyl]-amide trifluoroacetate]: no less than 6.00. On the same count and under the same terms, to `Cn1cnc(S(=O)(=O)NCCOc2ccc3c(c2)C(Cc2ccccc2Cl)C(N)CC3)c1` (stereo not shown) [Example 305, 1-Methyl-1H-imidazole-4-sulfonic acid {2-[7-amino-8-(2-chloro-benzyl)-5,6,7,8-tetrahydronaphthalen-2-yloxy]-ethyl}-amide hydrochloride] belongs no less than 7.00; to `NC1CCc2ccc(CNS(=O)(=O)C3CCC3)cc2C1Cc1ccc(F)c(F)c1` (stereo not shown) [Example 186, N-{[7-Amino-8-(3,4-difluorobenzyl)-5,6,7,8-tetrahydronaphthalen-2-yl]methyl}cyclobutanesulfonamide hydrochloride], no less than 6.00.

In the case of `Cn1cnc(S(=O)(=O)NCCOc2ccc3c(c2)C(Cc2ccc(Cl)c(Cl)c2)C(N)CC3)n1` (stereo not shown) [Example 104, 1-Methyl-1H-[1,2,4]triazole-3-sulfonic acid {2-[7-amino-8-(3,4-dichloro-benzyl)-5,6,7,8-tetrahydro-naphthalen-2-yloxy]-ethyl}-amide], the pKi was no less than 6.00.

As for `Cn1cc(S(=O)(=O)NCCOc2ccc3c(c2)C(Cc2ccccc2)C(N2CCC2)CC3)cn1` (stereo not shown) [Example 324, 1-Methyl-1H-pyrazole-4-sulfonic acid [2-(7-azetidin-1-yl-8-benzyl-5,6,7,8-tetrahydronaphthalen-2-yloxy)-ethyl]amide hydrochloride], the pKi is no less than 8.00. On the same count and under the same terms, to `CNC1CCc2ccc(CNS(=O)(=O)C3CCC3)cc2C1Cc1ccccc1` (stereo not shown) [Example 188, N-{[8-Benzyl-7-(methylamino)-5,6,7,8-tetrahydronaphthalen-2-yl]methyl}cyclobutanesulfonamide hydrochloride] belongs no less than 7.00; to `CCCS(=O)(=O)N1CC(COc2ccc3c(c2)C(Cc2cccc(Cl)c2)C(N)CC3)C1` (stereo not shown) [Example 286, 1-(3-Chloro-benzyl)-7-[1-(propane-1-sulfonyl)-azetidin-3-ylmethoxy]-1,2,3,4-tetrahydronaphthalen-2-ylamine hydrochloride], no less than 5.00; to `Cn1cc(S(=O)(=O)NCCOc2ccc3c(c2)C(Cc2cccc(Cl)c2)C(N2CCCC2)CC3)cn1` (stereo not shown) [Example 318, 1-Methyl-1H-pyrazole-4-sulfonic acid {2-[8-(3-chloro-benzyl)-7-pyrrolidin-1-yl-5,6,7,8-tetrahydro-naphthalen-2-yloxy]-ethyl}-amide hydrochloride], no less than 8.00. Still for that read-out and setting: to `Cn1ccc(S(=O)(=O)NCc2ccc3c(c2)C(Cc2ccccc2)C(N)CC3)n1` (stereo not shown) [Example 183, N-{[7-Amino-8-benzyl-5,6,7,8-tetrahydronaphthalen-2-yl]methyl}-1-methyl-1H-pyrazole-3-sulfonamide hydrochloride] belongs no less than 6.00; to `CCCS(=O)(=O)NCCc1ccc2c(c1)C(Cc1cccc(Cl)c1)C(N)CC2` (stereo not shown) [Example 304, Propane-1-sulfonic acid {2-[7-amino-8-(3-chloro-benzyl)-5,6,7,8-tetrahydro-naphthalen-2-yl]-ethyl}-amide hydrochloride], no less than 6.00; to `O=S(=O)(CC1CC1)NCCOc1ccc2c(c1)C(Cc1cc(F)cc(Cl)c1)C(N1CCC1)CC2` (stereo not shown) [Example 159, N-(2-{[7-(Azetidin-1-yl)-8-(3-chloro-5-fluorobenzyl)-5,6,7,8-tetrahydronaphthalen-2-yl]oxy}ethyl)-1-cyclopropylmethanesulfonamide (2E)-but-2-enedioate], no less than 7.00. On the same count and under the same terms, the same measure for `Cn1cnc(S(=O)(=O)NCc2ccc3c(c2)C(Cc2ccc(F)cc2)C(N)CC3)c1` (stereo not shown) [Example 176, N-{[7-Amino-8-(4-fluorobenzyl)-5,6,7,8-tetrahydronaphthalen-2-yl]methyl}-1-methyl-1H-imidazole-4-sulfonamide hydrochloride]: no less than 7.00; for `Cn1cc(S(=O)(=O)NCc2ccc3c(c2)C(Cc2ccccc2)C(N2CCOCC2)CC3)cn1` (stereo not shown) [Example 258, N-{[8-Benzyl-7-(morpholin-4-yl)-5,6,7,8-tetrahydronaphthalen-2-yl]methyl}-1-methyl-1H-pyrazole-4-sulfonamide]: no less than 7.00. In the case of `Cn1cnc(S(=O)(=O)NCc2ccc3c(c2)C(Cc2ccccc2)C(N)CC3)c1` (stereo not shown) [Example 173, N-[(7-Amino-8-benzyl-5,6,7,8-tetrahydronaphthalen-2-yl)methyl]-1-methyl-1H-imidazole-4-sulfonamide hydrochloride], the pKi was no less than 8.00. Still for that read-out and setting: to `CCCS(=O)(=O)NCCc1ccc2c(c1)C(Cc1cccc(Cl)c1)C(NC)CC2` (stereo not shown) [Example 309, Propane-1-sulfonic acid {2-[8-(3-chloro-benzyl)-7-methylamino-5,6,7,8-tetrahydronaphthalen-2-yl]-ethyl}-amide] belongs no less than 7.00; to `CCOC(=O)NC1CCc2ccc(OCCNS(=O)(=O)c3cn(C)cn3)cc2C1Cc1ccccc1Cl` (stereo not shown) [Example 298, {1-(2-Chloro-benzyl)-7-[2-(1-methyl-1H-imidazole-4-sulfonylamino)-ethoxy]-1,2,3,4-tetrahydro-naphthalen-2-yl}-carbamic acid ethyl ester], no less than 5.00.

The same experiment, now with this note: read-out: radioligand binding Kiapp.
Regarding `CCCS(=O)(=O)N(CCOc1ccc2c(c1)C(Cc1cccc(Cl)c1)C(NC(=O)OCC)CC2)C1CC1` (stereo not shown) [Example 279], the pKi is no less than 5.00.
